# Measurements from article PMC6844273, “Platinum(IV) dihydroxido diazido N-(heterocyclic)imine complexes are potently photocytotoxic when irradiated with visible light” (Chemical Science, 2019).
# pIC50: −log10 of the molar value. “Also recorded” adds a separate entry of the source. Read-outs that look alike come from different tables or passages of the source. Marks after values point to notes of the source that are not given here.
# Tests used:
# [1] = system: A2780, A2780cis and OE19 cancer cell lines; settings: for Dark toxicity: absence of irradiation, cell lines investigated; for pIC50: read-out: IC50 in the absence of irradiation, dark, non-toxic defined as IC50 > 200 μM
# Method: (§1) The novel trans-di-(N-heterocyclic)imine dihydroxido diazido Pt^IV complexes Pt^IV complexes were evaluated against human ovarian (A2780), cisplatin-resistant ovarian (A2780cis) and oesophageal (OE19) cancer cell lines, and the previously reported compounds (FM165 and 3) were also evaluated for comparison. […]
# (§2) Maintenance. Human ovarian carcinoma (A2780), cisplatin-resistant ovarian carcinoma (A2780CIS) and oesophageal adenocarcinoma (OE19) cells were maintained in RPMI medium containing 10% Foetal Calf Serum (FCS). Cell lines were obtained from the European Collection of Animal Cell Cultures (ECACC). Cells were maintained in antibiotic-free medium in a humidified atmosphere of 95% air: 5% CO2 and subcultured every 7-10 days. Mycoplasma checks were done using the Hoechst staining method. Cells were seeded into dishes the night before experiments at a density of 6 - 7×10^4 cells.cm-2.
# (§3) Experiments were carried out in an adapted laboratory with ambient light levels kept below 1 lux […]
# (§4) Irradiation. Cells were irradiated by a bank of TL03 light sources (λmax 420 nm), filtered to attenuate wavelengths below 400 nm. Irradiances, dosimetry and calibrations were traceable to the National […]
# (§5) Cells were irradiated in stirred suspension. Sham irradiated cells were treated identically to the test cells but were covered during irradiation.
# (§6) Treatment. Test compounds were prepared in Earle’s Balanced Salt Solution (EBSS) and filtered immediately before use. Photofrin was used as the positive control for visible light irradiation. The positive and negative controls were included on each plate in parallel with the complexes. Cell viability […]
# (§7) Cells were treated for 1 h at 37 °C/5% CO2 with EBSS containing the test compound, and then irradiated with 5 J.cm-2 visible radiation.
# (§8) Phototoxic Index and Wavelength-Dependence. The phototoxic Index (PI) was determined 24 h after irradiation using the neutral red uptake assay;14 following cell uptake the neutral red dye accumulates in lysosomes, the low pH in the lysosomal matrix of live cells causes the dye to becomes charged, allowing it to be retained in this organelle.15 The dye was then extracted from the cells upon solubilisation and quantified. Protocol: a stock solution of neutral red was prepared in water (4 mg. mL-1) and diluted 80-fold in the cell culture medium (RPMI). Prior to addition to the cells, the solution was heated to 37 °C and filtered (no. 1 Whatman paper). The growth medium was removed from the cells, the neutral red dye (100 μL) was added and the cells are incubated for 3 hours in the dark. Upon removal of the dye, the cells were rinsed with PBS (100 μL) and then the plates were shaken for 15 min with […] for solubilisation. The dye concentration was quantified by measuring the absorbance at […]. An IC50 value was determined and is defined as the concentration required to inhibit dye uptake by 50%. This was done using non-linear regression (Graphpad Prism). Goodness of fit was determined from the R2 values of the curves and 95% confidence intervals. All cell experiments were performed in triplicate and repeated independently a minimum of two times.
# [2] = system: human ovarian (A2780) cancer cell line; assay: Phototoxicity / dark cytotoxicity, neutral red uptake assay, A2780; settings: for PI (phototoxic index): ratio of cytotoxicity following irradiation (420 nm) vs. in the dark
# Method: as §1
# (§9) controller and 3 UVA lamps (Hitachi, λmax = 361 nm) or 6 Luzchem LZC-420 lamps (λmax = 420 nm) with no other sources of light filtration, or LED light sources (BASETech model no. SP-GU10 230V~50 Hz […]
# as §2, §3
# (§10) Irradiation. Cells were irradiated by a bank of TL03 light sources (λmax 420 nm), filtered to attenuate wavelengths below 400 nm. Irradiances, dosimetry and calibrations were traceable to the National Physical Laboratory.12 Monochromatic light irradiation of the sample was performed using equipment consisting of a 1600W xenon arc light source and a grating monochromator. The apparatus was set to irradiate monochromatic light at 365, 400, 430, 500 and 530 nm. Filters were used to eliminate second order diffraction of shorter wavelengths from the specified longer wavelength monochromatic light.13 Cells were irradiated in stirred suspension. Sham irradiated cells were treated identically to the test cells but were covered during irradiation.
# as §6, §7, §8
# [3] = format: physicochemical; settings: water, 20 °C
# [4] = system: cisplatin-resistant ovarian (A2780cis) cancer cell line; assay: Phototoxicity / dark cytotoxicity, neutral red uptake assay, A2780cis; settings: for PI (phototoxic index): ratio of cytotoxicity following irradiation (420 nm) vs. in the dark; for pIC50: read-out: IC50 (phototoxicity), blue light 420 nm, 5 J cm^–2, TL03, filtered <400 nm
# Method: as §1, §2, §3, §4, §5, §6, §7, §8
# [5] = Photodecomposition in H2O (loss of N3→Pt LMCT band) by UV-vis spectroscopy; format: physicochemical; settings: 60 μM in H2O, blue light 463 nm, 57 mW cm^–2, UV-vis
# Method: Solutions of the Pt^IV diazido complexes (60 μM, H2O) were irradiated with blue light (463 nm, 57 mW cm^–2). […] The data were fitted to y = y0 + Ae^Rox, with r^2 > 0.98 (Fig. 7).
# Figure S2: Changes in UV-Vis spectra of the PtIV diazido complexes (60 μM in H2O) upon irradiation
# Table S11. Decomposition half-lives of complexes (60 μM) when irradiated with blue (463 nm) light,
# as measured by UV-Vis spectroscopy.
# (1 picture or pasted object on this page, not shown here)
# [6] = system: oesophageal (OE19) cancer cell line; assay: Phototoxicity / dark cytotoxicity, neutral red uptake assay, OE19; settings: for PI (phototoxic index) / pIC50: OE19; for PI (phototoxic index): ratio of cytotoxicity following irradiation (420 nm) vs. in the dark; for pIC50: read-out: IC50 (phototoxicity), blue light 420 nm, 5 J cm^–2, TL03, filtered <400 nm
# Method: as §1, §9, §2, §3, §10, §6, §7, §8
# [7] = system: oesophageal (OE19) cancer cell line; parameters: method as in PMID 23733242; settings: OE19, 420 nm irradiation; read-out: IC50 (phototoxicity); cited from earlier work
# [8] = system: cisplatin-resistant ovarian (A2780cis) cancer cell line; settings: read-out: IC50 (phototoxicity), cited from earlier work
# [9] = system: human ovarian (A2780) cancer cell line; settings: cited from earlier work; for pIC50: read-out: IC50 (phototoxicity); for Dark toxicity: A2780, absence of irradiation
# [10] = system: A2780, A2780cis and OE19 cancer cell lines; parameters: method as in PMID 23733242; settings: dark; read-out: IC50 in the absence of irradiation; cited from earlier work
# [11] = read-out: IC50 (phototoxicity), A2780, blue light 420 nm, 5 J cm^–2, TL03, filtered <400 nm, 1 h treatment, read 24 h after irradiation
Substance,pIC50 [1],PI (phototoxic index) ([2]; A2780),"pIC50 [2, 11]",Maximum aqueous solubility [3] [mM],PI (phototoxic index) [4],pIC50 [4],Decomposition half-life t1/2 [5] [min],PI (phototoxic index) [6],pIC50 [6],further results
"trans,trans,trans-[Pt(N3)2(OH)2(1-methylimidazole)2] [Complex 32]",< 3.70,>3.7,4.25,82,>1.3,3.78,–,–,–,Dark toxicity [1]: non-toxic in the absence of irradiation
"trans,trans,trans-[Pt(N3)2(OH)2(2-picoline)(pyridine)] [Complex 18]",–,7.3 ^d,4.84,–,5.3 ^d,4.81,–,–,–,"Phototoxicity, fold less phototoxic than 26 ([2]; A2780, 420 nm): ~7 fold"
"trans,trans,trans-[Pt(N3)2(OH)2(3-picoline)2] [Complex 23]",< 3.70,>27.8,5.14,3,>19.3,4.98,26,–,–,–
"trans,trans,trans-[Pt(N3)2(OH)2(3-picoline)(pyridine)] [Complex 19]",< 3.70,>51.5,5.40,–,>71.0,5.48,–,>38,5.26,–
"trans,trans,trans-[Pt(N3)2(OH)2(4-picoline)2] [Complex 26]",< 3.70,–,5.68,–,–,5.39,25,–,5.09,–
"trans,trans,trans-[Pt(N3)2(OH)2(4-picoline)(pyridine)] [Complex 20]",< 3.70,>38,5.27,–,>45,5.34,–,>17,4.91,"Phototoxicity with green light ([2]; A2780, green light 515 nm): no phototoxicity; Phototoxicity with green light ([6]; OE19, green light 515 nm): no phototoxicity"
"trans,trans,trans-[Pt(N3)2(OH)2(NH2CH3)(thiazole)]",–,–,–,–,–,–,–,–,–,"pIC50 [7]: 4.71; pIC50 ([8]; 420 nm irradiation): 5.19; pIC50 ([9]; A2780, 420 nm irradiation): 4.55; pIC50 [10]: < 3.63"
"trans,trans,trans-[Pt(N3)2(OH)2(NH3)(py)] [FM165, reference compound]",–,>9.6,4.60,–,–,–,–,–,–,"Dark toxicity [9]: non-toxic in the absence of irradiation; pIC50 ([9]; A2780, visible light 420 nm): 4.60"
"trans,trans,trans-[Pt(N3)2(OH)2(thiazole)2] [Complex 29]",–,–,5.62,1,>71.0,5.54,17,>27,5.12,"Dark toxicity [1]: toxic towards cells in the absence of irradiation; Phototoxicity, fold greater than thiazole complex (tz, methylamine) ([1]; all three cell lines, 420 nm): at least 2 fold; Dark toxicity ([2]; A2780, absence of irradiation): some dark toxicity; pIC50 ([2]; read-out: IC50 in the absence of irradiation, A2780, dark): 3.94; Dark toxicity ([6]; OE19, absence of irradiation): no toxicity; also recorded: without any dark toxicity; Dark toxicity ([4]; absence of irradiation): no toxicity; also recorded: without any dark toxicity"
"trans,trans,trans-[Pt(OH)2(N3)2(py)2] [Complex 3, reference compound]",–,>45,5.17,34,–,–,22,>45,5.08,"pIC50 ([8]; UVA irradiation): 4.84; pIC50 ([9]; A2780, UVA irradiation): 5.85; Dark toxicity [9]: non-toxic in the absence of irradiation; pIC50 ([9]; A2780, visible light 420 nm): 5.17"
